Laboratory results taken from patent US12435044B2, “Pyridazinone herbicides and pyridazinone intermediates used to prepare a herbicide” (FMC Corporation, priority 2018, dated 2025).

Legend:
Test in all cases: Test K pre-/postemergence, mixtures of Cpd. No. 20 with metribuzin or rimsulfuron
Format in all cases: in vivo
[1] = test system: mare's tail (ERICA; Conyza canadensis)
Excerpt: (§1) This test evaluated the effect of mixtures of Cpd. No. 20 with metribuzin or rimsulfuron on several plant species. Seeds of plant species selected from corn (ZEAMD; Zea mays, cv. ‘Pioneer 1184’), soybean (GLXMA; Glycine max, cv. Pioneer 35T58), giant foxtail (SETFA; Setaria faberi), palmer amaranth (AMAPA; Amaranthus palmeri), common waterhemp (AMATU; Amaranthus rudis), mare's tail (ERICA; Conyza canadensis), and common ragweed (AMBEL; Ambrosia artemisiifolia) were planted in pots containing Tama Silt Loam soil and treated preemergence with a directed soil spray using test chemicals formulated in a non-phytotoxic solvent mixture which included a surfactant.
(§2) At the same time, plants selected from these crop and weed species were planted in pots containing Redi-Earth® planting medium (Scotts Company, 14111 Scottslawn Road, Marysville, Ohio 43041) comprising spaghnum peat moss, vermiculite, wetting agent and starter nutrients and treated postemergence with test chemicals formulated in the same manner. Plants ranged in height from 2 to 10 cm and were in the one- to two-leaf stage for the postemergence treatment. Treated plants and untreated controls were maintained in a greenhouse for approximately 14-21 d, after which time all treated plants were compared to untreated controls and visually evaluated for injury. Plant response ratings, summarized in Tables K1 to K4, are based on a 0 to 100 scale where 0 is no effect and 100 is complete control. A dash (-) response means no test result. Test results are presented as a mean of 4 reps.

[2] = test system: corn (ZEAMD; Zea mays, cv. ‘Pioneer 1184’)
Excerpt: as §1, §2

[3] = test system: common waterhemp (AMATU; Amaranthus rudis)
Excerpt: as §1, §2

[4] = test system: palmer amaranth (AMAPA; Amaranthus palmeri)
Excerpt: as §1, §2

[5] = test system: soybean (GLXMA; Glycine max, cv. Pioneer 35T58)
Excerpt: as §1, §2

[6] = test system: common ragweed (AMBEL; Ambrosia artemisiifolia)
Excerpt: as §1, §2

[7] = test system: giant foxtail (SETFA; Setaria faberi)
Excerpt: as §1, §2

CSc1nnc(C(C)(C)C)c(=O)n1N [Metribuzin, metribuzin, reference compound]
ERICA plant response rating, 0 to 100 scale ([1]; postemergence, 62 g a.i./ha): 10 | ERICA plant response rating, 0 to 100 scale ([1]; postemergence, 125 g a.i./ha): 13 | ERICA plant response rating, 0 to 100 scale ([1]; preemergence, 62 g a.i./ha): 100 | ERICA plant response rating, 0 to 100 scale ([1]; preemergence, 125 g a.i./ha): 100 | ZEAMD plant response rating, 0 to 100 scale ([2]; postemergence, 62 g a.i./ha): 0 | ZEAMD plant response rating, 0 to 100 scale ([2]; postemergence, 125 g a.i./ha): 10 | ZEAMD plant response rating, 0 to 100 scale ([2]; preemergence, 62 g a.i./ha): 0 | ZEAMD plant response rating, 0 to 100 scale ([2]; preemergence, 125 g a.i./ha): 0 | AMATU plant response rating, 0 to 100 scale ([3]; postemergence, 62 g a.i./ha): 37 | AMATU plant response rating, 0 to 100 scale ([3]; postemergence, 125 g a.i./ha): 82 | AMATU plant response rating, 0 to 100 scale ([3]; preemergence, 62 g a.i./ha): 53 | AMATU plant response rating, 0 to 100 scale ([3]; preemergence, 125 g a.i./ha): 86 | AMAPA plant response rating, 0 to 100 scale ([4]; postemergence, 62 g a.i./ha): 35 | AMAPA plant response rating, 0 to 100 scale ([4]; postemergence, 125 g a.i./ha): 47 | AMAPA plant response rating, 0 to 100 scale ([4]; preemergence, 62 g a.i./ha): 78 | AMAPA plant response rating, 0 to 100 scale ([4]; preemergence, 125 g a.i./ha): 70 | GLXMA plant response rating, 0 to 100 scale ([5]; postemergence, 62 g a.i./ha): 33 | GLXMA plant response rating, 0 to 100 scale ([5]; postemergence, 125 g a.i./ha): 53 | GLXMA plant response rating, 0 to 100 scale ([5]; preemergence, 62 g a.i./ha): 0 | GLXMA plant response rating, 0 to 100 scale ([5]; preemergence, 125 g a.i./ha): 0 | AMBEL plant response rating, 0 to 100 scale ([6]; postemergence, 62 g a.i./ha): 55 | AMBEL plant response rating, 0 to 100 scale ([6]; postemergence, 125 g a.i./ha): 62 | AMBEL plant response rating, 0 to 100 scale ([6]; preemergence, 62 g a.i./ha): 40 | AMBEL plant response rating, 0 to 100 scale ([6]; preemergence, 125 g a.i./ha): 100 | SETFA plant response rating, 0 to 100 scale ([7]; postemergence, 62 g a.i./ha): 0 | SETFA plant response rating, 0 to 100 scale ([7]; postemergence, 125 g a.i./ha): 10 | SETFA plant response rating, 0 to 100 scale ([7]; preemergence, 62 g a.i./ha): 30 | SETFA plant response rating, 0 to 100 scale ([7]; preemergence, 125 g a.i./ha): 80

CCS(=O)(=O)c1cccnc1S(=O)(=O)NC(=O)Nc1nc(OC)cc(OC)n1 [Rimsulfuron, rimsulfuron, reference compound]
ERICA plant response rating, 0 to 100 scale ([1]; postemergence, 8 g a.i./ha): 50 | ERICA plant response rating, 0 to 100 scale ([1]; postemergence, 16 g a.i./ha): 70 | ERICA plant response rating, 0 to 100 scale ([1]; preemergence, 8 g a.i./ha): 95 | ERICA plant response rating, 0 to 100 scale ([1]; preemergence, 16 g a.i./ha): 98 | ZEAMD plant response rating, 0 to 100 scale ([2]; postemergence, 8 g a.i./ha): 0 | ZEAMD plant response rating, 0 to 100 scale ([2]; postemergence, 16 g a.i./ha): 10 | ZEAMD plant response rating, 0 to 100 scale ([2]; preemergence, 8 g a.i./ha): 0 | ZEAMD plant response rating, 0 to 100 scale ([2]; preemergence, 16 g a.i./ha): 0 | AMATU plant response rating, 0 to 100 scale ([3]; postemergence, 8 g a.i./ha): 75 | AMATU plant response rating, 0 to 100 scale ([3]; postemergence, 16 g a.i./ha): 77 | AMATU plant response rating, 0 to 100 scale ([3]; preemergence, 8 g a.i./ha): 51 | AMATU plant response rating, 0 to 100 scale ([3]; preemergence, 16 g a.i./ha): 73 | AMAPA plant response rating, 0 to 100 scale ([4]; postemergence, 8 g a.i./ha): 60 | AMAPA plant response rating, 0 to 100 scale ([4]; postemergence, 16 g a.i./ha): 60 | AMAPA plant response rating, 0 to 100 scale ([4]; preemergence, 8 g a.i./ha): 33 | AMAPA plant response rating, 0 to 100 scale ([4]; preemergence, 16 g a.i./ha): 40 | GLXMA plant response rating, 0 to 100 scale ([5]; postemergence, 8 g a.i./ha): 75 | GLXMA plant response rating, 0 to 100 scale ([5]; postemergence, 16 g a.i./ha): 93 | GLXMA plant response rating, 0 to 100 scale ([5]; preemergence, 8 g a.i./ha): 0 | GLXMA plant response rating, 0 to 100 scale ([5]; preemergence, 16 g a.i./ha): 0 | AMBEL plant response rating, 0 to 100 scale ([6]; postemergence, 8 g a.i./ha): 40 | AMBEL plant response rating, 0 to 100 scale ([6]; postemergence, 16 g a.i./ha): 60 | AMBEL plant response rating, 0 to 100 scale ([6]; preemergence, 8 g a.i./ha): 0 | AMBEL plant response rating, 0 to 100 scale ([6]; preemergence, 16 g a.i./ha): 43 | SETFA plant response rating, 0 to 100 scale ([7]; postemergence, 8 g a.i./ha): 80 | SETFA plant response rating, 0 to 100 scale ([7]; postemergence, 16 g a.i./ha): 97 | SETFA plant response rating, 0 to 100 scale ([7]; preemergence, 8 g a.i./ha): 50 | SETFA plant response rating, 0 to 100 scale ([7]; preemergence, 16 g a.i./ha): 73
